Assay results as given in ChEMBL document CHEMBL1148184, “Gloiosiphones A and B, Novel Metabolites from the Red Marine Alga Gloiosiphonia verticillaris” (J Nat Prod, 1993).
Activity calls are given as the source filed them.

Key:
Type in all cases: functional, organism-based
[1] = system: Bacillus subtilis; assay: Antibacterial activity against Bacillus subtilis ATCC 6081
[2] = system: Escherichia coli; assay: Antibacterial activity against Escherichia coli ATCC 11775
[3] = system: Salmonella typhimurium; assay: Antibacterial activity against Salmonella Typhimurium ATCC 14028; details: Salmonella enterica subsp. enterica serovar Typhimurium
[4] = system: Staphylococcus aureus; assay: Antibacterial activity against Staphylococcus aureus ATCC 12600

Measured: Activity

COCC1(O)OCCC1=O (stereo not drawn)
inactive: all assays above

COC[C@@]1(O)C(=O)CC[C@@]12CC(OC)=C(OC)C2=O
inactive: all assays above
